Test results as given in the NIST ThermoML archive (doi:10.1021/je4007844).

Conditions: Liquid; for viscosity: Concentric cylinders viscometry

CCCCCCn1cc[n+](C)c1.[Cl-] [1-hexyl-3-methylimidazolium chloride]
101.33 kPa, Vibrating tube method
Conditions | mass density [kg/m3]
303.15 K | 1035.1
313.15 K | 1029.5
323.15 K | 1023.9
333.15 K | 1018.4
343.15 K | 1012.8
353.15 K | 1007.4
363.15 K | 1002.1
373.15 K | 997.1

101.33 kPa
Conditions | viscosity [mPa·s]
323.15 K | 1806
333.15 K | 810.3
343.15 K | 404.3
353.15 K | 220.6
363.15 K | 129.7
373.15 K | 81.34

CCCCCC[n+]1ccn(C)c1.O=S(=O)([N-]S(=O)(=O)C(F)(F)F)C(F)(F)F
101.33 kPa
Conditions | viscosity [mPa·s]
293.15 K | 90.06
303.15 K | 56.25
313.15 K | 37.44
323.15 K | 26.25
333.15 K | 19.21
343.15 K | 14.55
353.15 K | 11.36
363.15 K | 9.091
373.15 K | 7.434

Conditions | mass density [kg/m3]
293.15 K, 101.33 kPa, Vibrating tube method | 1376.3
303.15 K, 101.33 kPa, Vibrating tube method | 1367.1
312.6 K, 100 kPa, Bellows volumetry | 1358.5
312.6 K, 10000 kPa, Bellows volumetry | 1365.7
312.6 K, 20000 kPa, Bellows volumetry | 1373
312.6 K, 30000 kPa, Bellows volumetry | 1380.1
312.6 K, 40000 kPa, Bellows volumetry | 1386.7
312.6 K, 50000 kPa, Bellows volumetry | 1392.8
312.6 K, 60000 kPa, Bellows volumetry | 1399
312.6 K, 70000 kPa, Bellows volumetry | 1404.6
312.6 K, 80000 kPa, Bellows volumetry | 1410.2
312.6 K, 90000 kPa, Bellows volumetry | 1415.5
312.6 K, 100000 kPa, Bellows volumetry | 1420.7
312.6 K, 110000 kPa, Bellows volumetry | 1425.8
312.6 K, 120000 kPa, Bellows volumetry | 1430.8
312.6 K, 130000 kPa, Bellows volumetry | 1435.5
312.6 K, 140000 kPa, Bellows volumetry | 1440.1
312.6 K, 150000 kPa, Bellows volumetry | 1444.5
312.6 K, 160000 kPa, Bellows volumetry | 1448.9
312.6 K, 170000 kPa, Bellows volumetry | 1453
312.6 K, 180000 kPa, Bellows volumetry | 1457.6
312.6 K, 190000 kPa, Bellows volumetry | 1461.6
312.6 K, 200000 kPa, Bellows volumetry | 1465.9
313.15 K, 101.33 kPa, Vibrating tube method | 1358
323.15 K, 101.33 kPa, Vibrating tube method | 1348.9
332.4 K, 100 kPa, Bellows volumetry | 1340
332.4 K, 10000 kPa, Bellows volumetry | 1348.1
332.4 K, 20000 kPa, Bellows volumetry | 1355.9
332.4 K, 30000 kPa, Bellows volumetry | 1363.3
332.4 K, 40000 kPa, Bellows volumetry | 1370.4
332.4 K, 50000 kPa, Bellows volumetry | 1377
332.4 K, 60000 kPa, Bellows volumetry | 1383.2
332.4 K, 70000 kPa, Bellows volumetry | 1389.3
332.4 K, 80000 kPa, Bellows volumetry | 1395.1
332.4 K, 90000 kPa, Bellows volumetry | 1400.5
332.4 K, 100000 kPa, Bellows volumetry | 1406.3
332.4 K, 110000 kPa, Bellows volumetry | 1411.5
332.4 K, 120000 kPa, Bellows volumetry | 1416.5
332.4 K, 130000 kPa, Bellows volumetry | 1421.3
332.4 K, 140000 kPa, Bellows volumetry | 1426.1
332.4 K, 150000 kPa, Bellows volumetry | 1430.9
332.4 K, 160000 kPa, Bellows volumetry | 1435.4
332.4 K, 170000 kPa, Bellows volumetry | 1439.7
332.4 K, 180000 kPa, Bellows volumetry | 1444
332.4 K, 190000 kPa, Bellows volumetry | 1448.4
332.4 K, 200000 kPa, Bellows volumetry | 1452.6
333.15 K, 101.33 kPa, Vibrating tube method | 1339.9
343.15 K, 101.33 kPa, Vibrating tube method | 1331
352.3 K, 100 kPa, Bellows volumetry | 1322.2
352.3 K, 10000 kPa, Bellows volumetry | 1330.9
352.3 K, 20000 kPa, Bellows volumetry | 1339.3
352.3 K, 30000 kPa, Bellows volumetry | 1347.3
352.3 K, 40000 kPa, Bellows volumetry | 1354.5
352.3 K, 50000 kPa, Bellows volumetry | 1361.5
352.3 K, 60000 kPa, Bellows volumetry | 1368.2
352.3 K, 70000 kPa, Bellows volumetry | 1374.6
352.3 K, 80000 kPa, Bellows volumetry | 1380.6
352.3 K, 90000 kPa, Bellows volumetry | 1386.5
352.3 K, 100000 kPa, Bellows volumetry | 1392
352.3 K, 110000 kPa, Bellows volumetry | 1397.5
352.3 K, 120000 kPa, Bellows volumetry | 1402.7
352.3 K, 130000 kPa, Bellows volumetry | 1408
352.3 K, 140000 kPa, Bellows volumetry | 1412.8
352.3 K, 150000 kPa, Bellows volumetry | 1417.6
352.3 K, 160000 kPa, Bellows volumetry | 1422.1
352.3 K, 170000 kPa, Bellows volumetry | 1426.8
352.3 K, 180000 kPa, Bellows volumetry | 1431.4
352.3 K, 190000 kPa, Bellows volumetry | 1435.5
352.3 K, 200000 kPa, Bellows volumetry | 1439.9
353.15 K, 101.33 kPa, Vibrating tube method | 1322.2
363.15 K, 101.33 kPa, Vibrating tube method | 1313.3
372.5 K, 100 kPa, Bellows volumetry | 1304.4
372.5 K, 10000 kPa, Bellows volumetry | 1313.7
372.5 K, 20000 kPa, Bellows volumetry | 1322.6
372.5 K, 30000 kPa, Bellows volumetry | 1330.9
372.5 K, 40000 kPa, Bellows volumetry | 1338.6
372.5 K, 50000 kPa, Bellows volumetry | 1346
372.5 K, 60000 kPa, Bellows volumetry | 1353
372.5 K, 70000 kPa, Bellows volumetry | 1359.6
372.5 K, 80000 kPa, Bellows volumetry | 1366
372.5 K, 90000 kPa, Bellows volumetry | 1372.1
372.5 K, 100000 kPa, Bellows volumetry | 1378
372.5 K, 110000 kPa, Bellows volumetry | 1383.7
372.5 K, 120000 kPa, Bellows volumetry | 1389.1
372.5 K, 130000 kPa, Bellows volumetry | 1394.3
372.5 K, 140000 kPa, Bellows volumetry | 1399.4
372.5 K, 150000 kPa, Bellows volumetry | 1404.4
372.5 K, 160000 kPa, Bellows volumetry | 1409.3
372.5 K, 170000 kPa, Bellows volumetry | 1414
372.5 K, 180000 kPa, Bellows volumetry | 1418.5
372.5 K, 190000 kPa, Bellows volumetry | 1423.1
372.5 K, 200000 kPa, Bellows volumetry | 1427.4
373.15 K, 101.33 kPa, Vibrating tube method | 1304.7
392.7 K, 100 kPa, Bellows volumetry | 1286.8
392.7 K, 10000 kPa, Bellows volumetry | 1296.8
392.7 K, 20000 kPa, Bellows volumetry | 1306.3
392.7 K, 30000 kPa, Bellows volumetry | 1315.1
392.7 K, 40000 kPa, Bellows volumetry | 1323.4
392.7 K, 50000 kPa, Bellows volumetry | 1331.1
392.7 K, 60000 kPa, Bellows volumetry | 1338.5
392.7 K, 70000 kPa, Bellows volumetry | 1345.4
392.7 K, 80000 kPa, Bellows volumetry | 1352.1
392.7 K, 90000 kPa, Bellows volumetry | 1358.3
392.7 K, 100000 kPa, Bellows volumetry | 1364.5
392.7 K, 110000 kPa, Bellows volumetry | 1370.3
392.7 K, 120000 kPa, Bellows volumetry | 1376
392.7 K, 130000 kPa, Bellows volumetry | 1381.5
392.7 K, 140000 kPa, Bellows volumetry | 1386.8
392.7 K, 150000 kPa, Bellows volumetry | 1391.9
392.7 K, 160000 kPa, Bellows volumetry | 1397
392.7 K, 170000 kPa, Bellows volumetry | 1401.8
392.7 K, 180000 kPa, Bellows volumetry | 1406.5
392.7 K, 190000 kPa, Bellows volumetry | 1411.1
392.7 K, 200000 kPa, Bellows volumetry | 1415.7
412.7 K, 100 kPa, Bellows volumetry | 1269.8
412.7 K, 10000 kPa, Bellows volumetry | 1280.4
412.7 K, 20000 kPa, Bellows volumetry | 1290.4
412.7 K, 30000 kPa, Bellows volumetry | 1299.8
412.7 K, 40000 kPa, Bellows volumetry | 1308.4
412.7 K, 50000 kPa, Bellows volumetry | 1316.5
412.7 K, 60000 kPa, Bellows volumetry | 1324.3
412.7 K, 70000 kPa, Bellows volumetry | 1331.5
412.7 K, 80000 kPa, Bellows volumetry | 1338.5
412.7 K, 90000 kPa, Bellows volumetry | 1345
412.7 K, 100000 kPa, Bellows volumetry | 1351.3
412.7 K, 110000 kPa, Bellows volumetry | 1357.5
412.7 K, 120000 kPa, Bellows volumetry | 1363.2
412.7 K, 130000 kPa, Bellows volumetry | 1368.9
412.7 K, 140000 kPa, Bellows volumetry | 1374.3
412.7 K, 150000 kPa, Bellows volumetry | 1379.8
412.7 K, 160000 kPa, Bellows volumetry | 1384.9
412.7 K, 170000 kPa, Bellows volumetry | 1389.9
412.7 K, 180000 kPa, Bellows volumetry | 1394.7
412.7 K, 190000 kPa, Bellows volumetry | 1399.4
412.7 K, 200000 kPa, Bellows volumetry | 1404
432.6 K, 100 kPa, Bellows volumetry | 1252.4
432.6 K, 10000 kPa, Bellows volumetry | 1263.7
432.6 K, 20000 kPa, Bellows volumetry | 1274.3
432.6 K, 30000 kPa, Bellows volumetry | 1284.2
432.6 K, 40000 kPa, Bellows volumetry | 1293.3
432.6 K, 50000 kPa, Bellows volumetry | 1301.7
432.6 K, 60000 kPa, Bellows volumetry | 1309.7
432.6 K, 70000 kPa, Bellows volumetry | 1317.3
432.6 K, 80000 kPa, Bellows volumetry | 1324.5
432.6 K, 90000 kPa, Bellows volumetry | 1331.2
432.6 K, 100000 kPa, Bellows volumetry | 1337.8
432.6 K, 110000 kPa, Bellows volumetry | 1344.1
432.6 K, 120000 kPa, Bellows volumetry | 1350.3
432.6 K, 130000 kPa, Bellows volumetry | 1356.1
432.6 K, 140000 kPa, Bellows volumetry | 1361.9
432.6 K, 150000 kPa, Bellows volumetry | 1367.3
432.6 K, 160000 kPa, Bellows volumetry | 1372.4
432.6 K, 170000 kPa, Bellows volumetry | 1377.5
432.6 K, 180000 kPa, Bellows volumetry | 1382.5
432.6 K, 190000 kPa, Bellows volumetry | 1387.4
432.6 K, 200000 kPa, Bellows volumetry | 1392.2
452.3 K, 100 kPa, Bellows volumetry | 1235.6
452.3 K, 10000 kPa, Bellows volumetry | 1247.6
452.3 K, 20000 kPa, Bellows volumetry | 1258.8
452.3 K, 30000 kPa, Bellows volumetry | 1269.2
452.3 K, 40000 kPa, Bellows volumetry | 1278.8
452.3 K, 50000 kPa, Bellows volumetry | 1287.6
452.3 K, 60000 kPa, Bellows volumetry | 1295.9
452.3 K, 70000 kPa, Bellows volumetry | 1303.9
452.3 K, 80000 kPa, Bellows volumetry | 1311.3
452.3 K, 90000 kPa, Bellows volumetry | 1318.3
452.3 K, 100000 kPa, Bellows volumetry | 1325.1
452.3 K, 110000 kPa, Bellows volumetry | 1331.8
452.3 K, 120000 kPa, Bellows volumetry | 1338
452.3 K, 130000 kPa, Bellows volumetry | 1344.1
452.3 K, 140000 kPa, Bellows volumetry | 1349.9
452.3 K, 150000 kPa, Bellows volumetry | 1355.5
452.3 K, 160000 kPa, Bellows volumetry | 1360.8
452.3 K, 170000 kPa, Bellows volumetry | 1366.2
452.3 K, 180000 kPa, Bellows volumetry | 1371.3
452.3 K, 190000 kPa, Bellows volumetry | 1376.4
452.3 K, 200000 kPa, Bellows volumetry | 1381.2
